Molecules are shown by their SMILES. Where two headings read alike, the source gives them in different places.

From patent publication US20230136702A1, “Inhibitors of Human Herpesviruses” (The Governors of the University of Alberta, priority 2020, published 2023) come the findings set out here.

Data set [1] deals with T1, hERG potassium channel (Homo sapiens, UniProt Q12809).
T1 construct: host or cells: CHO cells stably expressing hERG
Put plainly: Inhibition of hERG potassium channel, automated patch clamp (SyncroPatch 384PE) in CHO cells. In kind it is cell-based. (hERG is a cardiac potassium channel; its block is linked to QT prolongation.)

Data set [2] has as its target T2, HCMV DNA polymerase (UL54) (Human cytomegalovirus, UniProt P08546).
T2 construct: 6His (C); made in house; host or cells: Sf9 insect cells (baculovirus, pFastBac)
Put plainly: HCMV DNA polymerase enzyme inhibition assay (ProFoldin, fluorescence). In kind it is biochemical. As to conditions: 37° C., duplicate, max 40 μM.

The test system of data set [3] is HCMV US3-6-EGFP-HCMV-AD169 strain. Put plainly: In vitro inhibitory (antiviral) activity against HCMV, GFP reporter in MRC5 cells. In kind it is cell-based, Human cytomegalovirus (HCMV). As to conditions: Human betaherpesvirus 5, AD169, MRC5, 96 h, read-out: HCMV Antiviral EC50 range. The essentials:
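MRC5 cells were infected with GFP-reporter virus (MOI=0.1) alongside compounds (8 points, 3-fold dilutions, duplicate; top 40 μM test compounds, 100 μM ganciclovir; 0.5% DMSO final) for 4 days at 37 °C. GFP fluorescence inhibition, normalized to virus and cell controls, gave EC50; viability gave CC50.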

A short description of data set [4]: Cytotoxicity in MRC5 cells without virus infection (CCK8). In kind it is cell-based. As to conditions: human.
Where [5] appears, read: CHO cells stably expressing hERG, room temperature, 0.494-40.00 μM, read-out: CHO-hERG Activity Range.

T2 sequence (P08546 whole entry): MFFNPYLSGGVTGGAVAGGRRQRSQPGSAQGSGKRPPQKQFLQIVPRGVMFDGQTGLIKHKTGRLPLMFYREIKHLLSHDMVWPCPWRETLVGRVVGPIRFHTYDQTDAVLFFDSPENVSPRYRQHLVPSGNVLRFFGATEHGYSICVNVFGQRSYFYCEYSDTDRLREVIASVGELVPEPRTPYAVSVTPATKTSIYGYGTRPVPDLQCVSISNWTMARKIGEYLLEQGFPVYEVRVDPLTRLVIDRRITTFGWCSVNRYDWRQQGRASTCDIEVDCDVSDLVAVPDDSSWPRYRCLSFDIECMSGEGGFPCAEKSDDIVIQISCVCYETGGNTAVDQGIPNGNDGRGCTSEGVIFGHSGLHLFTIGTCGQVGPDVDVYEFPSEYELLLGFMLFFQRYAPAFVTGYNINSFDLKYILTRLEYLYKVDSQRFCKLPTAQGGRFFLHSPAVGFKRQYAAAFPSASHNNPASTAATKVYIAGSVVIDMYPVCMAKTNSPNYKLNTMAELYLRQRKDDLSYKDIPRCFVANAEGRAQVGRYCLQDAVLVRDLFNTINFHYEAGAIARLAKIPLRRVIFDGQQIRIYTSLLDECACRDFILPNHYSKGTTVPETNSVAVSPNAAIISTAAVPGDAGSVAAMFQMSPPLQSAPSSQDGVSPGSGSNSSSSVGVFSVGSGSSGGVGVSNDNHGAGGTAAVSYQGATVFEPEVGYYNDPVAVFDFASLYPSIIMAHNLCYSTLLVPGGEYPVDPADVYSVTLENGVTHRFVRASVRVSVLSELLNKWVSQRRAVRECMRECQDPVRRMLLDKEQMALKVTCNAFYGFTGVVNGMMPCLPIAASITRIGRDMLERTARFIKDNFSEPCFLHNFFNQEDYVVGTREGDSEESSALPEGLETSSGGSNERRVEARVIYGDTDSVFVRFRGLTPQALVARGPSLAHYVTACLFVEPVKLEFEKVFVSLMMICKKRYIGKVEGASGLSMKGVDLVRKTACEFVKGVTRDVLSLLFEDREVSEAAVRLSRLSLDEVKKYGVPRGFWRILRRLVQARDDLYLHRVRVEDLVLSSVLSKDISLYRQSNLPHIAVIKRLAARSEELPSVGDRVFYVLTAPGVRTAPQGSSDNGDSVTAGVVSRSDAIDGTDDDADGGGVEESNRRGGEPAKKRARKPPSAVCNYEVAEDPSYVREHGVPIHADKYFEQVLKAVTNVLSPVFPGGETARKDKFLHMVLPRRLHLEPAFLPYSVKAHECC
T1 sequence (Q12809 whole entry): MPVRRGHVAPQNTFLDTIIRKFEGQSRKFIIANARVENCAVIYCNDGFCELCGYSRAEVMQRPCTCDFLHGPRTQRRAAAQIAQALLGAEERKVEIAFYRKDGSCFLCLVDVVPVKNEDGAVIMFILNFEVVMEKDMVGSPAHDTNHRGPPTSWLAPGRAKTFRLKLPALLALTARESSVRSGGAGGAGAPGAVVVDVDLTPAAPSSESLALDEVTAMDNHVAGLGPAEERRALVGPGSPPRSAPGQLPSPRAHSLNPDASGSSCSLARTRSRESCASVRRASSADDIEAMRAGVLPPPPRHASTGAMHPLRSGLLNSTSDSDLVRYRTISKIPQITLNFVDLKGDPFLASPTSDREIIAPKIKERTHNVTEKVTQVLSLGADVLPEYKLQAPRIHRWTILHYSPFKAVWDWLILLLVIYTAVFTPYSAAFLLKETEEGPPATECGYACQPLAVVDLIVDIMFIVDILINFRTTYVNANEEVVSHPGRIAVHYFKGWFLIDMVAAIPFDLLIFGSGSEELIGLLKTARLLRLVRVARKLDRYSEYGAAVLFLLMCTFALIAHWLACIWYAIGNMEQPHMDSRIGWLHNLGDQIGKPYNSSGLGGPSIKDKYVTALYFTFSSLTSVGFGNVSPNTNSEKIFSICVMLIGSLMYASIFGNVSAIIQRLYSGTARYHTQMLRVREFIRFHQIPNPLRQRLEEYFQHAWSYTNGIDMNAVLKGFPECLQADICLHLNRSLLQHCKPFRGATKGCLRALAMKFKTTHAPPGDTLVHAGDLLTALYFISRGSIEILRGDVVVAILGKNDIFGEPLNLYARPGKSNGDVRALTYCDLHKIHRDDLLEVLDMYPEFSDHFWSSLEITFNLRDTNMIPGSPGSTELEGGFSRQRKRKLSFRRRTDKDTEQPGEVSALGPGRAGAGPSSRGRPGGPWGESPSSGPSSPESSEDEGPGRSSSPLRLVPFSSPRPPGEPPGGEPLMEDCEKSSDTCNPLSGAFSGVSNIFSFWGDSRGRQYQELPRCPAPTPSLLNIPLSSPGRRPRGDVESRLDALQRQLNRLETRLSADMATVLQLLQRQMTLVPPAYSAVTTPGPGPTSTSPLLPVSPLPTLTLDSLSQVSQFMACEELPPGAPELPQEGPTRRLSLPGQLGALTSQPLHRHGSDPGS

Turning to `CN1C(=O)CN(c2cnc3c(cc(C(=O)NCc4ccc(Cl)cc4)c(=O)n3CC(=O)N3CC(C)(F)C3)n2)C1=O` [Compound 14, N-[(4-chlorophenyl)methyl]-5-[2-(3-fluoro-3-methylazetidin-1-yl)-2-oxoethyl]-2-(3-methyl-2,4-dioxoimidazolidin-1-yl)-6-oxo-5,6-dihydropyrido[2,3-b]pyrazine-7-carboxamide], the IC50 in data set [1] (setting [5]) was > 10 µM; in data set [2], < 1000 nM. For the same molecule, in data set [3], the EC50 (commonly the concentration at which the effect is half-maximal) was > 1000 nM. Besides, in data set [4], the CC50 (as a rule, the concentration at which the toxic effect on the cells reaches its halfway point) at 4 days was > 40 µM.

With `CC1(F)CN(C(=O)Cn2c(=O)c(C(=O)NCc3ccc(Cl)cc3)cc3nc(N4CCOC4=O)cnc32)C1` [Compound 2, N-[(4-chlorophenyl)methyl]-5-[2-(3-fluoro-3-methylazetidin-1-yl)-2-oxoethyl]-6-oxo-2-(2-oxo-1,3-oxazolidin-3-yl)-5,6-dihydropyrido[2,3-b]pyrazine-7-carboxamide], the IC50 in data set [1] (setting [5]) was < 10 µM; in data set [2], < 1000 nM. In data set [3], the EC50 was < 1000 nM. Further, the CC50 at 4 days in data set [4] is < 40 µM.

For `CC1(F)CN(C(=O)Cn2c(=O)c(C(=O)NCc3ccc(Cl)cc3)cc3nc(N4CCN(Cc5nnn[nH]5)C4=O)cnc32)C1` [Compound 27, N-[(4-chlorophenyl)methyl]-5-[2-(3-fluoro-3-methylazetidin-1-yl)-2-oxoethyl]-6-oxo-2-{2-oxo-3-[(1H-tetrazol-5-yl)methyl]imidazolidin-1-yl}-5,6-dihydropyrido[2,3-b]pyrazine-7-carboxamide], the IC50 was > 10 µM in data set [1] (setting [5]) and < 1000 nM in data set [2]. In addition, the EC50 in data set [3] was > 1000 nM. Besides, the CC50 at 4 days in data set [4] was > 40 µM.

Consider `CC1(F)CN(C(=O)Cn2c(=O)c(C(=O)NCc3ccc(Cl)cc3)cc3nc(N4CC(=O)NC4=O)cnc32)C1` [Compound 41, N-[(4-chlorophenyl)methyl]-2-(2,4-dioxoimidazolidin-1-yl)-5-[2-(3-fluoro-3-methylazetidin-1-yl)-2-oxoethyl]-6-oxo-5,6-dihydropyrido[2,3-b]pyrazine-7-carboxamide], for which the IC50 in data set [1] (setting [5]) was > 10 µM; in data set [2] it was < 1000 nM. In data set [3], the EC50 was > 1000 nM. Also, in data set [4], half-maximal cytotoxicity (CC50 at 4 days) was put at 23 µM.

`CN(C)CCN1CCN(c2cnc3c(cc(C(=O)NCc4ccc(Cl)cc4)c(=O)n3CC(=O)N3CC(C)(F)C3)n2)C1=O` [Compound 42, N-[(4-chlorophenyl)methyl]-2-{3-[2-(dimethylamino)ethyl]-2-oxoimidazolidin-1-yl}-5-[2-(3-fluoro-3-methylazetidin-1-yl)-2-oxoethyl]-6-oxo-5,6-dihydropyrido[2,3-b]pyrazine-7-carboxamide]: the IC50 in data set [1] (setting [5]) is > 10 µM; in data set [2], > 1000 nM. Besides, the concentration for a half-maximal effect (EC50) in data set [3] was < 1000 nM. The CC50 at 4 days in data set [4] is > 40 µM.

With `CN1C(=O)CN(c2cnc3c(cc(C(=O)NCc4ccc(Cl)cc4)c(=O)n3CC(=O)N3CC4(CC4)C3)n2)C1=O` [Compound 15, 5-[2-(5-azaspiro[2.3]hexan-5-yl)-2-oxoethyl]-N-[(4-chlorophenyl)methyl]-2-(3-methyl-2,4-dioxoimidazolidin-1-yl)-6-oxo-5,6-dihydropyrido[2,3-b]pyrazine-7-carboxamide], the values for the IC50 in data set [1] and in data set [2] were < 10 µM and < 1000 nM, respectively. Also, in data set [3], the EC50 is < 1000 nM. In addition, the CC50 at 4 days in data set [4] was > 40 µM.

As for `CC1(F)CN(C(=O)Cn2c(=O)c(C(=O)NCc3ccc(Cl)cc3)cc3nc(N4CCNC4=O)cnc32)C1` [Compound 12, N-[(4-chlorophenyl)methyl]-5-[2-(3-fluoro-3-methylazetidin-1-yl)-2-oxoethyl]-6-oxo-2-(2-oxoimidazolidin-1-yl)-5,6-dihydropyrido[2,3-b]pyrazine-7-carboxamide], the values for the IC50 in data set [1] (setting [5]) and in data set [2] were > 10 µM and < 1000 nM, respectively. For the same molecule, the EC50 in data set [3] is < 1000 nM. Further, the 50% cytotoxic concentration (CC50) at 4 days in data set [4] is > 40 µM.

With `CC1(F)CN(C(=O)Cn2c(=O)c(C(=O)NCc3ccc(Cl)cc3)cc3nc(N4CCN(CCN)C4=O)cnc32)C1` [Compound 6], the results for the IC50 in data set [1] (setting [5]) and in data set [2] were > 10 µM and < 1000 nM, respectively. Besides, the EC50 in data set [3] is < 1000 nM. Moreover, in data set [4], the CC50 at 4 days is > 40 µM.

Turning to `CC(=O)NCCN1CCN(c2cnc3c(cc(C(=O)NCc4ccc(Cl)cc4)c(=O)n3CC(=O)N3CC(C)(F)C3)n2)C1=O` [Compound 19], the IC50 is > 10 µM in data set [1] (setting [5]) and < 1000 nM in data set [2]. Further, in data set [3], the EC50 is > 1000 nM. Further, in data set [4], the CC50 at 4 days was > 40 µM.

On to `CC1(F)CN(C(=O)Cn2c(=O)c(C(=O)NCc3ccc(Cl)cc3)cc3nc(N4CCN(CC(N)=O)C4=O)cnc32)C1` [Compound 40, 2-[3-(2-amino-2-oxoethyl)-2-oxoimidazolidin-1-yl]-N-[(4-chlorophenyl)methyl]-5-[2-(3-fluoro-3-methylazetidin-1-yl)-2-oxoethyl]-6-oxo-5,6-dihydropyrido[2,3-b]pyrazine-7-carboxamide], for which the IC50 in data set [1] (setting [5]) is > 10 µM; in data set [2] it was < 1000 nM. The EC50 in data set [3] is > 1000 nM. Besides, the CC50 at 4 days in data set [4] was > 40 µM.

Regarding `CC1(F)CN(C(=O)Cn2c(=O)c(C(=O)NCc3ccc(Cl)cc3)cc3nc(N4CCN(CC(=O)O)C4=O)cnc32)C1` [Compound 13, [3-(7-{[(4-chlorophenyl)methyl]carbamoyl}-5-[2-(3-fluoro-3-methylazetidin-1-yl)-2-oxoethyl]-6-oxo-5,6-dihydropyrido[2,3-b]pyrazin-2-yl)-2-oxoimidazolidin-1-yl]acetic acid], the IC50 in data set [1] (setting [5]) was > 10 µM; in data set [2], < 1000 nM. Also, the EC50 in data set [3] is > 1000 nM. Besides, the CC50 at 4 days in data set [4] is > 40 µM.
